# “Also recorded” adds a separate entry of the source.
# Experiments:
# [1] = In vitro stability in mouse liver homogenate; assay type: in vitro ADME; conditions: mouse liver homogenate (10%, wt/vol), 10 µM
# Description: (§1) In vitro stability studies were conducted using our previously published methods naive CD1 mouse plasma or liver homogenate. For liver homogenate stability study, washed mouse liver was diluted 10-fold in 0.1 M potassium phosphate buffer and homogenized using probe sonication. Crude homogenate was then aliquoted to 1 mL, and the homogenate was spiked with 10 µM compound. The plasma stability of the compounds was determined by spiking (10 µM) in 1 mL of plasma and incubating in an orbital shaker at 37°C. All the stability studies were conducted at predetermined times (0, 30, and 60 min), where 100 µL aliquots of the mixture in triplicate were removed and the reaction was quenched by the addition of three times the volume of ice-cold acetonitrile spiked with the internal standard (losartan: 0.5 µM). The samples were vortex-mixed for 30 s and centrifuged at 10,000g for 10 min at 4°C. An amount of 50 µL of the supernatant was diluted with 50 µL of water and transferred to a 250 µL polypropylene vial sealed with a Teflon cap. Compound disappearance was monitored over time using liquid chromatography and tandem mass spectrometry (LC–MS/MS). Paired t-tests were used to determine statistical significance between 0 and 60 min time points.
# [2] = test system: FVB mice; test: Acute toxicity dose-escalation study in mice; assay type: in vivo, mouse; conditions: n = 2
# Description: Six-week-old female FVB mice were administered BAP by intraperitoneal (IP) injection at doses of 1, 3, 10, 30, 100, and 300 mg/kg. The mice were observed every hour for 6 h post administration for signs of overt toxicity or mortality, or for symptoms related to pain/distress (ruffled fur, discharge from the eyes, dehydration, hunched posture, convulsions, lethargy, reluctance to move, uncoordinated movements, hypothermia, pale ears/feet, labored respiration, and/or cyanosis). Following initial observations, 6 h post administration, mice were then observed daily for signs of toxicity for 18 days. Mice that were administered the highest dose of BAP tested (300 mg/kg) were weighed at days 0, 1, 2, 5, 6, 7, 13, and 18.
# [3] = test system: DXPS; set-up: method as in PMID 23326631; conditions: over other ThDP-dependent enzymes; cited from earlier work
# [4] = test system: E. coli; conditions: cited from earlier work
# [5] = In vitro stability in mouse plasma; assay type: in vitro ADME
# Description: as §1
# [6] = In vitro stability in mouse liver microsomes; assay type: in vitro ADME
# Description: Figure S1. Percent BAP or pro-hpAP remaining after incubation in mouse liver microsomes (+/-NADPH) (a), mouse plasma (b), or mouse liver homogenates (c). Data shown as bar graphs in Figure 4.
# [7] = test system: UPEC (CFT073); set-up: method as in PMID 37107054; conditions: cited from earlier work
# [8] = test system: UPEC (CFT073); test: Antimicrobial susceptibility of UPEC (CFT073) grown in urine; assay type: cell-based, uropathogenic Escherichia coli
# Description: Pooled human urine was filter-sterilized prior to use. Solid urine agar plates were prepared by supplementing cooled 1.5% (wt/vol) agar with filter-sterilized urine in a 4:1 ratio. OD600 measurements were performed on a Beckman DU800 UV/Visible spectrophotometer (Brea, CA, USA). MIC determination data were collected from bacteria in 96-well plates (Nunc Edge 96-Well, Non-Treated, Flat-Bottom Microplate) incubated and read on a Biotek Epoch 2 microplate reader. Uropathogenic E. coli strain CFT073 (ATCC: BAA-2503) was obtained from the lab of Rodney Welch ([58]). All microbial manipulation of pathogenic bacteria was conducted in a certified biosafety level 2 laboratory following all associated safety protocols. A hand-held tissue homogenizer (purchased from IKA, T10 basic S001, 3737001) was used to homogenize mouse bladders for bacterial enumeration.
# UPEC (CFT073) cells from frozen glycerol stocks were streaked onto urine agar plates and grown for 48 h at 37°C. Three to five isolated colonies were inoculated into filter-sterilized urine supplemented with FeSO4 (20 µM), and the cultures were grown overnight with shaking at 37°C. The saturated cultures were subcultured (1:50) in fresh urine supplemented with FeSO4 (20 µM) and grown to exponential phase (OD600 ~ 0.25). Cultures at exponential phase were diluted 1:1,000 into fresh urine supplemented with FeSO4 (20 µM) to yield the experimental inoculum which was mixed 1:1 with urine containing pro-hpAP at 2 × the desired final concentration (0–10 µM). The final concentration of bacteria in each well was ~10^5 CFU/mL in a volume of 200 µL. Colony counts of the experimental inoculum were independently verified by dilution and enumeration on LB agar, grown for 16 h at 37°C, to confirm consistency between experiments. The 96-well plates were incubated at 37°C for 16 h with intermittent shaking. Fractional growth of cells treated with pro-hpAP was determined at 8 h relative to the no drug control. MIC determination was performed in biological triplicate.
SMILES,% remaining in liver homogenate ([1]; at 1 h),"body weight ([2]; single IP dose 300 mg/kg, weighed for 18 days, 300 mg/kg)","overt toxicity or altered behavior ([2]; single IP dose, escalating up to 300 mg/kg, observed 18 days)",selectivity for DXPS [3],MICs ([4]; under nutrient limitation),"% remaining in plasma ([5]; 10 µM, 37°C, at 1 h)",% remaining in liver microsomes ([6]; at 1 h),MIC (growth suppressed >90%) ([7]; UPEC CFT073 in urine),"reduction in UPEC growth ([7]; in urine, at 156 µM BAP)",prodrug remaining in liver homogenate ([1]; 30 min incubation),MIC ([4]; standard nutrient limitation conditions),"remaining at 1 h, 10 µM ([5]; CD1, 37°C)",remaining at 1 h [6],"MIC ([8]; Escherichia coli, UPEC CFT073 in urine, read-out: MIC (growth suppressed >90%))","reduction in fractional growth ([8]; UPEC CFT073 in urine, at 630 nM pro-hpAP, 8 h)","higher potency than BAP (MIC in urine) ([8]; UPEC in urine, relative to BAP)"
"CCCCOP(=O)(O)C(C)=O [BAP, butyl acetylphosphonate]",22%,weight was maintained throughout the observation period; also recorded: no symptoms of distress or change in weight,No overt toxicity or altered behavior was observed; also recorded: no symptoms of distress,selective for DXPS over other ThDP-dependent enzymes,low micromolar range,79%,94%,1250 µM,~ 80%,,,,,,,
C#CCCOP(=O)(O)C(=C)NC(=O)C(CC(C)C)NC(=O)CN (stereo not shown) [pro-hpAP],,,,,,,,,,no prodrug remaining,~ 20 nM,95%,90%,5 µM,> 70%,250 fold
